Test results: article PMC3355380, “Back to the Future: Lessons Learned in Modern Target-based and Whole-Cell Lead Optimization of Antimalarials” (Current Topics in Medicinal Chemistry, 2012)
≈ marks a conversion by molar mass, not a printed value. Like-named read-outs stand apart in the source and are kept apart here. Values belong to the molecule of their own block, whether it stands above or below them.

Assays:
Plasmodium berghei = test: P. berghei murine model; type: in vivo; details: for Activity (%): average parasitemia reduction; for Cure Rate (%): cure was no parasites at day 30
recombinant PfCDPK1 = recombinant PfCDPK1 (Plasmodium falciparum, UniProt P62344); test: PfCDPK1 enzyme inhibition; type: biochemical
recombinant PfCDPK1, sequence (P62344 whole entry): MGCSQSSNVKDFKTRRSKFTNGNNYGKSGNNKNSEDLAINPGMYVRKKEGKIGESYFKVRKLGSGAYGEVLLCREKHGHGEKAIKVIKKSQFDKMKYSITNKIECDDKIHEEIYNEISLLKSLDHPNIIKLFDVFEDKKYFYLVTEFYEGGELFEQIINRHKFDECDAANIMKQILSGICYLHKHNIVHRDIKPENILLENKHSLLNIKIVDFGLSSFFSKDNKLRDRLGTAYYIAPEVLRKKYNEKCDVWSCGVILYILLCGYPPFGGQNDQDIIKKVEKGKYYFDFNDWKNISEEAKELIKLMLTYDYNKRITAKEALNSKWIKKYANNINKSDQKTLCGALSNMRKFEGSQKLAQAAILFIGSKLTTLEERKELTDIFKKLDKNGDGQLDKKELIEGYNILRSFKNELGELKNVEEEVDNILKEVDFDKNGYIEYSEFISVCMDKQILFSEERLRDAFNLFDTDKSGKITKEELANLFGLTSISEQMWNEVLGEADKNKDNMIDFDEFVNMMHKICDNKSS
Text: In P. falciparum, calcium-dependent protein kinase 1 (PfCDPK1) is expressed during schizogony in the blood and sporozoite stages and is ultimately required for parasite invasion of host cells, parasite motility, and potentially cytokinesis. We identified a series of purine-based, ATP competitive kinase inhibitors from a target-based screen of approximately 20,000 compounds on recombinant PfCDPK1 [9]. Of the most promising hits, the 2,6,9-trisubstitutes purines made up the largest class of compounds coming out of the screen and were therefore chosen as a lead series for chemical optimization.

P. falciparum 3D7 = P. falciparum 3D7 proliferation assay; type: cell-based, Plasmodium falciparum; details: Plasmodium falciparum, 3D7
Text: (§1) We screened both our in-house compound collection (~2.3M compounds) and natural products library (12,000 compounds) using a cell based Plasmodium falciparum proliferation assay. This screen provided data on a large number of chemically diverse anti-malarial compounds. These nearly 5700 hits have been deposited into the public EBI database by GNF/Novartis. A number of these hits originated from kinase-directed libraries and many of which are pan-kinase inhibitors. De-convoluting and eliminating inherent kinase activity with many of these scaffolds while maintaining cellular potency was the first step in the hit-to-lead phase for these particular chemotypes. What follows is a summary of the chemical optimization of some kinase-like and non-kinase scaffolds which came out of the whole-cell screening effort.

[1] = cytotoxicity on HeLa cells; type: cell-based; details: human
[2] = cytotoxicity on CHO cells; type: cell-based; details: Chinese hamster
[3] = cytotoxicity on Huh7 cells; details: human, Huh7 cells
[4] = cytotoxicity on HEp2 cells; type: cell-based; details: human
P. falciparum W2 = P. falciparum W2 proliferation assay; type: cell-based; details: Plasmodium falciparum, piperidyl benzamides, mean of two experiments
Text: as §1

[5] = system: fifteen P. falciparum strains; test: panel of fifteen P. falciparum wild type and drug resistant strains; type: cell-based; details: Plasmodium falciparum, read-out: in vitro EC50s across fifteen P. falciparum strains
40 mammalian kinases = test: panel of 40 mammalian kinases; type: biochemical
aqueous solubility = type: physicochemical; details: aqueous medium, pH 6.8, aqueous buffer
[6] = purines, mean of two experiments, read-out: P. falciparum 3D7 EC50
[7] = mean of two experiments, read-out: PfCDPK1 IC50
[8] = piperidyl benzamides, mean of two experiments, read-out: P. falciparum 3D7 EC50

Structure (SMILES): C[C@H]1[C@H](OC(=O)CCC(=O)O)O[C@@H]2O[C@@]3(C)CC[C@H]4[C@H](C)CC[C@@H]1[C@@]24OO3 [AS, artesunate, reference compound]
Activity (%) (Plasmodium berghei; 1 x 30 mg/kg, 7% Tween 80/3% ethanol (20: 75% PEG300/25%D5W)): 89%
Activity (%) (Plasmodium berghei; 1 x 30 mg/kg, 10% ethanol, 30% PEG400, 6% vitamin E TPGS (30: 0.5% MCM / 0.1% Solutol HS15)): 92.2%
Cure Rate (%) (Plasmodium berghei; 1 x 30 mg/kg): 0%
Survival (Plasmodium berghei; 1 x 30 mg/kg, untreated mice 6-7 days): 7.2 days
Survival (Plasmodium berghei; 1 x 30 mg/kg, untreated mice 6-7 days, Table 10): 7.3 days
Activity (%) (Plasmodium berghei; 1 x 100 mg/kg): 97%
Survival (Plasmodium berghei; 1 x 100 mg/kg, untreated mice 6-7 days): 6.7 days
Survival (Plasmodium berghei; 3 x 30 mg/kg, 30 day experiment, Table 10): 11.8 days
Activity (%) (Plasmodium berghei; 3 x 30 mg/kg): 98%
Activity (%) (Plasmodium berghei; 3 x 30 mg/kg, Table 10): 99.0%
Cure Rate (%) (Plasmodium berghei; 3 x 30 mg/kg): 0%
Survival (Plasmodium berghei; 3 x 30 mg/kg, untreated mice 6-7 days): 7.2 days

Structure (SMILES): N[C@H]1CC[C@H](Nc2nc(Nc3ccc(C(=O)N4CCCCC4)cc3)c3ncn(-c4cccc(F)c4)c3n2)CC1 [Compound 2, purfalcamine]
IC50 (recombinant PfCDPK1): 17 nM
improvement in enzyme potency (2 vs. 3) (recombinant PfCDPK1; compound 2 versus compound 3): greater than 200 fold
EC50 (P. falciparum 3D7; [6]): 230 nM
EC50 [1]: 7000 nM
EC50 [2]: 12300 nM
EC50 [3]: 5500 nM
EC50 [4]: 7200 nM

IC50 (recombinant PfCDPK1; [7]): 4040 nM
EC50 (P. falciparum 3D7; [6]): 312 nM
Structure (SMILES): N[C@H]1CC[C@H](Nc2nc(Nc3ccc(C(=O)N4CCCCC4)cc3)c3ncn(-c4ccc(OCc5ccccc5)cc4)c3n2)CC1 [Compound 3]

IC50 (recombinant PfCDPK1; [7]): 342 nM
EC50 (P. falciparum 3D7; [6]): 400 nM
Structure (SMILES): N[C@H]1CC[C@H](Nc2nc(Nc3ccc(C(=O)N4CCCCC4)cc3)c3ncn(-c4ccc5c(c4)OCO5)c3n2)CC1 [Compound 4]

Structure (SMILES): CCOc1ccc(-n2cnc3c(Nc4ccc(C(=O)N5CCCCC5)cc4)nc(N[C@H]4CC[C@H](N)CC4)nc32)cc1 [Compound 5]
IC50 (recombinant PfCDPK1): 240 nM
EC50 (P. falciparum 3D7; [6]): 535 nM

IC50 (recombinant PfCDPK1; [7]): 71 nM
EC50 (P. falciparum 3D7; [6]): > 10000 nM
Structure (SMILES): N[C@H]1CC[C@H](Nc2nc(Nc3ccc(C(=O)N4CCCCC4)cc3)c3ncn(-c4cccc(C(=O)O)c4)c3n2)CC1 [Compound 6]

IC50 (recombinant PfCDPK1; [7]): 28 nM
EC50 (P. falciparum 3D7; [6]): > 10000 nM
Structure (SMILES): N[C@H]1CC[C@H](Nc2nc(Nc3ccc(C(=O)N4CCCCC4)cc3)c3ncn(-c4ccc(C(=O)O)cc4)c3n2)CC1 [Compound 7]

EC50 (P. falciparum 3D7; [8]): 134 ± 56 nM
EC50 (P. falciparum W2): 888 ± 112 nM
Structure (SMILES): O=C(Nc1cccc(Cl)c1)c1cc(N2CCC(N3CCCC3)CC2)cc(C(F)(F)F)c1 [Compound 11]

EC50 (P. falciparum 3D7; [8]): 97 ± 18 nM
EC50 (P. falciparum W2): 276 ± 14 nM
Structure (SMILES): O=C(Nc1cccc(Cl)c1)c1cc(N2CCC(N3CCCCC3)CC2)cc(C(F)(F)F)c1 [Compound 12]

EC50 (P. falciparum 3D7; [8]): 149 nM
EC50 (P. falciparum W2): 299 nM
Structure (SMILES): O=C(Nc1cccc(C(F)(F)F)c1)c1cc(N2CCC(N3CCCCC3)CC2)cc(C(F)(F)F)c1 [Compound 13]

EC50 (P. falciparum 3D7; [8]): 140 nM
EC50 (P. falciparum W2): 323 nM
EC50 [5]: 100 to 300 nM
Structure (SMILES): CC1CCN(C2CCN(c3cc(C(=O)Nc4cccc(Cl)c4)cc(C(F)(F)F)c3)CC2)CC1 [Compound 14]

EC50 (P. falciparum 3D7; [8]): 58 nM
EC50 (P. falciparum W2): 211 nM
Structure (SMILES): CC1CCCN(C2CCN(c3cc(C(=O)Nc4cccc(C(F)(F)F)c4)cc(C(F)(F)F)c3)CC2)C1 (stereo not shown) [Compound 15]

EC50 (P. falciparum 3D7; imidazolopyrimidines, Fig. 2, read-out: 3D7 EC50): 420 nM
solubility (aqueous solubility): 36 µM (≈ 17.3 µg/mL)
Structure (SMILES): FC(F)(F)Oc1ccc(Nc2cc(Nc3nccn3-c3cccc(C(F)(F)F)c3)ncn2)cc1 [Compound 16]
activity against a panel of 40 mammalian kinases (40 mammalian kinases): did not exhibit significant activity
